These results are taken from patent US20230132667A1, “DRUG-LIKE MOLECULES AND METHODS FOR THE THERAPEUTIC TARGETING OF VIRAL RNA STRUCTURES” (UNIVERSITY OF WASHINGTON, priority 2020, published 2023).

In assay [1] the test system is Tat-dependent reactivation. The note with it: cited from earlier work.
In assay [2] the target is HIV TAR. The assay can be described thus: 2-aminopurine (2AP) fluorescence binding assay. On the set-up: species or system HIV-1. To be noted: 2AP-labeled HIV TAR, excess tRNA; single binding event; read-out: affinity by fitting Equation 1.
Description: The fourth stage in the screening cascade quantifies binding using an orthogonal biophysical method.
To quantify binding of the compounds to HIV TAR, a 2-amino purine method was used. In this assay, U25 on HIV TAR was substituted with 2-aminopurine and binding assays were conducted on a Horiba Tau fluorometer.
2-AP binding assays. Fluorescence intensity binding assays were conducted using a method based on the incorporation of a single fluorescent base analogue (2-amino-purine, 2AP) in place of U25 for HIV TAR, and by monitoring changes in the reporter emission fluorescence intensity at 362 nm upon small molecule titration. Each experiment was collected in duplicate with 50 nM 2AP-TAR titrated with 5 mL of ligand stock solutions prepared by serial dilution. Methods were followed with 250×fold excess yeast tRNA added to the buffer as a competitor to reduce non-specific binding. Data were collected on a Horiba FL3-21tau Fluorescence Spectrophotometer, exported to Graphpad Prism v.8.1.1 and fit to Equation 1.
where Y is the measured fluorescence at 362 nm, Yi is fluorescence of the fully bound target, Yo is the fluorescence of the unbound RNA, Rt is total RNA concentration, Lt is total ligand concentration and Kd is the binding affinity.
The test system of assay [3] is HIV TAR. The assay can be described thus: Single point ligand-detected NMR relaxation assay in low salt buffer (stage 1). The note with it: 100 μM small molecule in low salt buffer, 10 μM RNA. The class given is binding, HIV-1. The source says: (§1) For initial screening and hit identification, a relaxation edited ligand-detect method is used to detect binding under low salt conditions. These initial conditions are chosen to facilitate the discovery of even low affinity compounds with favorable chemical characteristics. Binding compounds are identified through changes in peak height when comparing spectra for RNA-free and RNA-bound ligand (FIG. 8). The change in peak height is proportional to the increase in ligand line width, compared to the free small molecule, which occurs upon binding to the larger biomolecule. This NMR method is agnostic to biomolecular target, as it only depends on the longer rotational correlation time (Tc) of the small molecule bound in a complex with a much larger biomolecular target, which has a much […] correlation time; other NMR methods (e.g., STD) can be used as well.
(§2) Stage 1. […] The free ligand linewidths of compounds dissolved at concentration of 100 μM were quantified and compared to the ligand linewidths observed after addition of 10 μM RNA target. […]
(§3) Small molecule hit identification and tiered approach to ligand-detected NMR screening. In order to identify small molecules that bind to RNA and quantify the strength of the interaction, a tiered approach to NMR screening involving both ligand- and target-detected NMR experiments was used. […]

Assay [4] deals with pre-miR-21. The description is as above. Format: binding. The note with it: 100 μM small molecule in low salt buffer, 10 μM RNA.
Description: as §1, §2, §3

Assay [5] deals with HIV TAR. The assay can be described thus: Target-detected NMR (TOCSY, 1D imino spectra; stage 3). Format: binding, HIV-1. The note with it: chemical shift changes, TOCSY / 1D 1H imino spectra. The protocol:
Stage 3. The third stage in the screening cascade involves monitoring changes in the NMR spectra of the RNA target to identity where on the target the compound binds and examine the structural characteristics of the interaction. This step is conducted in the same […] buffer used for screening, prepared either in 95% H2O/5% D2O (water buffer) or 99.99% D2O (D2O buffer) to monitor different classes of proton resonances (FIGS. 10A and 10B). Uniform labeling of bases with ^13C and ^15N can also be performed, but this is relatively expensive.
Target detect NMR assays to measure RNA-ligand interactions. Transcribed RNA sequences (at natural isotopic abundance, along with ^15N/^13C enriched or selectively labeled ^2H samples) are snap-cooled in 250-500 μL NMR buffer (50 mM d9 bis-Tris pH 6.5, 50 mM NaCl) by heating to 95° C. for 4 min then placed at −20° C. until frozen. All ligand stocks were dissolved in 10-20 mM H2O, D2O or DMSO depending on ligand solubility. […] Ligand interactions are detected by changes in chemical shift through a series of NMR experiments, including but not limited to 1D ^1H and 2D ^1H-^1H TOCSY, ^1H-^1H NOESY, ^1H-^1H EXSY, ^15N-^1H HSQC, and ^13C-^1H HSQC experiments, which are used to map the binding site of the ligand on the RNA. […]

Non-standard residues stand in square brackets, D forms with d. Agb = N=C(N)NCC[C@H](N)C(=O)O; Dab = NCC[C@H](N)C(=O)O

In the case of “cyclo(P(dab)VRTRKGRRI(NOR)Ip) (cyclo(P[Dab]VRTRKGRRI[Agb]I[dP])) [JB181]”, the “inhibition of Tat-dependent reactivation in cells” value in assay [1] is on record as “only moderately inhibits”.

With `CN(C)C(=O)c1cc2cnc(Nc3ccc(N4CCNCC4)cn3)nc2n1C1CCCC1` [Ribociclib], the Kd in assay [2] was found to be 215 ± 56 nM. Moreover, the “single point binding response to HIV TAR” value in assay [3] is on record as “binding responses”. The “single point binding response to pre-miR-21” value in assay [4] is “binding responses”. The “binding to HIV TAR by target-detected NMR (qualitative)” value in assay [5] is “high nM binding”.
